Tests used:
[1] = biological target: T1, 3',5'-cyclic-AMP phosphodiesterase 4B (Homo sapiens, UniProt Q07343); experiment: Inhibition of PDE4B
[2] = Cmax in rat at 10 mg/kg, po; assay type: ADME, organism-based; set-up: dose 10 mg/kg, route oral; settings: in vivo
[3] = biological target: cAMP and cAMP-inhibited cGMP 3',5'-cyclic phosphodiesterase 10A (Homo sapiens, UniProt Q9Y233); experiment: Inhibition of PDE10
[4] = biological target: Dual 3',5'-cyclic-AMP and -GMP phosphodiesterase 11A (Homo sapiens, UniProt Q9HCR9); experiment: Inhibition of PDE11
Rattus norvegicus [5] = experiment: Antiinflammatory activity in po dosed rat lipopolysaccharide-induced pulmonary inflammation model assessed as inhibition of polymorphonuclear cells; assay type: functional
[6] = biological target: T1, 3',5'-cyclic-AMP phosphodiesterase 4B; experiment: Inhibition of PDE4B at 1 uM
Rattus norvegicus [7] = experiment: Antiinflammatory activity in rat lipopolysaccharide-induced pulmonary inflammation model assessed as inhibition of polymorphonuclear cells at 1 mg/kg, po; assay type: functional
Rattus norvegicus [8] = experiment: Antiinflammatory activity in rat lipopolysaccharide-induced pulmonary inflammation model assessed as inhibition of polymorphonuclear cells at 3 mg/kg, po; assay type: functional
Homo sapiens [9] = organism: Homo sapiens; experiment: Selectivity for PDE4B over PDE10
Homo sapiens [10] = organism: Homo sapiens; experiment: Selectivity for PDE4B over PDE11
Cynomolgus monkey = experiment: AUC in cynomolgus monkey at 30 mg/kg, po; assay type: ADME, organism-based, Macaca fascicularis, Plasma; set-up: dose 30 mg/kg, route oral; settings: in vivo
[11] = Cmax in cynomolgus monkey at 30 mg/kg, po; assay type: ADME, organism-based, Macaca fascicularis; set-up: dose 30 mg/kg, route oral; settings: in vivo

T1 sequence (Q07343 whole entry): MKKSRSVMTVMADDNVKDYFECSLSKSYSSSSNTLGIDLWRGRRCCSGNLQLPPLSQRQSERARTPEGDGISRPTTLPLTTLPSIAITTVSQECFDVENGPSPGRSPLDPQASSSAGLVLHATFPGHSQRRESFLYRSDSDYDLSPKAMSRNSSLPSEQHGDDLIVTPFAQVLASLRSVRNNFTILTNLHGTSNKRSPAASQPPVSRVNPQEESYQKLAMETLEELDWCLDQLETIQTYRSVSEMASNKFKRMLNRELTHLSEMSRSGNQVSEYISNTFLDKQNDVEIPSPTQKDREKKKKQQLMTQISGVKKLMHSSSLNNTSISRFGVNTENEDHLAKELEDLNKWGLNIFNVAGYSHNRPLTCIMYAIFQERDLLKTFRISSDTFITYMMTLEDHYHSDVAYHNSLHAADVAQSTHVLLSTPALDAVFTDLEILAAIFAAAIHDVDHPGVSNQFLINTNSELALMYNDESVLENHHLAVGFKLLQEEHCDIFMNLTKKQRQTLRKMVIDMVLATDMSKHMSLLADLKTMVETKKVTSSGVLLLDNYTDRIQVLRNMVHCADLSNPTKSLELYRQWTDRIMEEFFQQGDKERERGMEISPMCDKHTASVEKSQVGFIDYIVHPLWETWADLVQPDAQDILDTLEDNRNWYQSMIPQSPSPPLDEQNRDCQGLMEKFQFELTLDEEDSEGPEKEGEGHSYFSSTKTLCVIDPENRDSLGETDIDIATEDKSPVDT
cAMP and cAMP-inhibited cGMP 3',5'-cyclic phosphodiesterase 10A, sequence (Q9Y233 whole entry): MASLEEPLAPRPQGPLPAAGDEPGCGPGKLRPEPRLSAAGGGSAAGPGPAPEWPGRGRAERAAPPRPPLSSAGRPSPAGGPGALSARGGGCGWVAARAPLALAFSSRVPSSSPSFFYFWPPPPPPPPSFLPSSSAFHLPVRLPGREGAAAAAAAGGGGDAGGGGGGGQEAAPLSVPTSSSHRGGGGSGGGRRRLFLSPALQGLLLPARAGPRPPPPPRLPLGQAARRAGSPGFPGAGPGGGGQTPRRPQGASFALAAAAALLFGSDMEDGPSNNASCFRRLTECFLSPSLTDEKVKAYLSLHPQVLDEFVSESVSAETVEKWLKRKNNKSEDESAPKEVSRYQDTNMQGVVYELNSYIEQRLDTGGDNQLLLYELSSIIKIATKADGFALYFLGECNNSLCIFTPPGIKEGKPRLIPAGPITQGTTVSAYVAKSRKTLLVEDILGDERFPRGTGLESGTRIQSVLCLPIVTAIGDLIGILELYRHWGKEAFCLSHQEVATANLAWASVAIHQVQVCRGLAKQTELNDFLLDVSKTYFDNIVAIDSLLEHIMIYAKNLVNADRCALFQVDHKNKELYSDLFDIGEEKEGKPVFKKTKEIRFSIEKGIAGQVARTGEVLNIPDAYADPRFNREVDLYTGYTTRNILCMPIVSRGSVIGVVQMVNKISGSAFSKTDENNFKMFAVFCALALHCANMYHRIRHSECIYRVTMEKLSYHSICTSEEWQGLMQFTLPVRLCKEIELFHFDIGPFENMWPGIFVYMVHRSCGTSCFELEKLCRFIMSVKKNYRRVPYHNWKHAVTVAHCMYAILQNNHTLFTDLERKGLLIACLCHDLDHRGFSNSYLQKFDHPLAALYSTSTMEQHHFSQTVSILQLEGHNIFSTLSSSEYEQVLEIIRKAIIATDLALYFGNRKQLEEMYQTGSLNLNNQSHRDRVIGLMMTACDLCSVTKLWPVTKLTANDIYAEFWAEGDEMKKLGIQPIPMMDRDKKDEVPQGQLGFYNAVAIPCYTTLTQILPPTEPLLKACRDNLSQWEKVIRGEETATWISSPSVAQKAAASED
Dual 3',5'-cyclic-AMP and -GMP phosphodiesterase 11A, sequence (Q9HCR9 whole entry): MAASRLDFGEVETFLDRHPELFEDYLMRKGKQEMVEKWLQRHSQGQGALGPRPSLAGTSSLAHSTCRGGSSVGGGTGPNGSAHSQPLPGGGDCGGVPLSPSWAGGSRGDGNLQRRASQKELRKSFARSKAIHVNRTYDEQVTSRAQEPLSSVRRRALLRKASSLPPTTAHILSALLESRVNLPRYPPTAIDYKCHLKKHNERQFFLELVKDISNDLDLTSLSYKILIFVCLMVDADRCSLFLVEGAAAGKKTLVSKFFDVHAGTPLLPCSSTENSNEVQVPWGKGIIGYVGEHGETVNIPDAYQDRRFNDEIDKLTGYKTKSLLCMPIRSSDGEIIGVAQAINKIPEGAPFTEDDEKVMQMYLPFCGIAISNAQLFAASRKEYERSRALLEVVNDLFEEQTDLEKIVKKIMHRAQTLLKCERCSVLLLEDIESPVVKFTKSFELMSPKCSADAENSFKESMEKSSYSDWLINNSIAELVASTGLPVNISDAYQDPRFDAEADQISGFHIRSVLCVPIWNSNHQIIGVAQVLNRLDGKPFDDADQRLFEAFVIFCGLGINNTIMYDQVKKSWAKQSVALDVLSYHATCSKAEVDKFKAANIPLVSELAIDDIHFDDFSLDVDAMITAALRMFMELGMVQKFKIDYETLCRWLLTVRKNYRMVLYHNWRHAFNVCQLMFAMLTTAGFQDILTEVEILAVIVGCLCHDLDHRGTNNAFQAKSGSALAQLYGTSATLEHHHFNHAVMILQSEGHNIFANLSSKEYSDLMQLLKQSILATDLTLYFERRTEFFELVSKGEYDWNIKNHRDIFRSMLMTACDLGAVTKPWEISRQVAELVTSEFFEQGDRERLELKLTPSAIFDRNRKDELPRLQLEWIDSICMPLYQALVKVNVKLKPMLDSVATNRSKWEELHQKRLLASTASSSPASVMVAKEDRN

Row | SMILES | IC50 [1] [nM] | IC50 [3] [nM] | IC50 [4] [nM] | also measured
1 | COc1ccc(-c2nc(C(=O)N3CCC(O)(c4ccccc4)CC3)c(CN)o2)c2ccc(C(F)(F)F)nc12 | 2 | 600 | 500 | Cmax [2]: 170 nM; ED50 (Rattus norvegicus [5]): 2 mg/kg
2 | COc1ccc(-c2nc(C(N)=O)c(CN3CCCCC3)o2)c2ccc(C(F)(F)F)nc12 |  |  |  | inhibition [6]: 27%
3 | COc1ccc(-c2nc(CN)c(C(N)=O)o2)c2ccc(C(F)(F)F)nc12 | 76 |  |  | 
4 | CO/N=C(\c1ccccn1)C1CCN(C(=O)c2nc(-c3ccc(OC)c4nc(C(F)(F)F)ccc34)oc2CN)CC1 | 1.6 | 120 | 1500 | Cmax [2]: 610 nM; inhibition in vivo at 1 mg/kg (Rattus norvegicus [7]): 45%
5 | COc1ccc(-c2nc(C(=O)N3CCN(C(=O)OC(C)(C)C)CC3)c(CN)o2)c2ccc(C(F)(F)F)nc12 | 4.3 | 1100 | 600 | Cmax [2]: 1400 nM; inhibition in vivo at 3 mg/kg (Rattus norvegicus [8]): 56%
6 | COc1ccc(-c2nc(C(N)=O)c(CN)o2)c2ccc(C(F)(F)F)nc12 | 24 | 2800 | 7600 | 
7 | COc1ccc(-c2nc(C(=O)N3CCN(C(=O)c4cc(C)[nH]n4)CC3)c(CN)o2)c2ccc(C(F)(F)F)nc12 | 0.5 | 1500 | 1000 | Selectivity ratio (Homo sapiens [9]): 1000; Selectivity ratio (Homo sapiens [10]): 1000
8 | COc1ccc(-c2nc(C(=O)O)c(C)o2)c2ccc(C(F)(F)F)nc12 | 390 |  |  | 
9 | COc1ccc(-c2nc(C(N)=O)c(C)o2)c2ccc(C(F)(F)F)nc12 | 88 |  |  | 
10 | CNC(=O)c1nc(-c2ccc(OC)c3nc(C(F)(F)F)ccc23)oc1CN | 110 |  |  | 
11 | COc1ccc(-c2nc(C(=O)N3CC[C@@H](NC(=O)OC(C)(C)C)C3)c(CN)o2)c2ccc(C(F)(F)F)nc12 | 1.4 | 130 | 820 | Cmax [2]: 610 nM; ED50 (Rattus norvegicus [5]): 0.2 mg/kg
12 | COc1cc(OC)nc(N2CCN(C(=O)c3nc(-c4ccc(OC)c5nc(C(F)(F)F)ccc45)oc3CN)CC2)n1 | 2.2 | 760 | 970 | Cmax [2]: 230 nM; ED50 (Rattus norvegicus [5]): 2 mg/kg
13 | COc1ccc(-c2nc(C(=O)O)c(CN)o2)c2ccc(C(F)(F)F)nc12 | 53 |  |  | 
14 | CCN(CC)C(=O)c1nc(-c2ccc(OC)c3nc(C(F)(F)F)ccc23)oc1CN | 62 |  |  | 
15 | COc1ccc(-c2nc(C(=O)N3CCN(S(=O)(=O)N(C)C)CC3)c(CN)o2)c2ccc(C(F)(F)F)nc12 | 1.2 | 1700 | 3300 | Selectivity ratio (Homo sapiens [9]): 1000; Selectivity ratio (Homo sapiens [10]): 1000
16 | CNCc1oc(-c2ccc(OC)c3nc(C(F)(F)F)ccc23)nc1C(N)=O | 580 |  |  | 
17 | COc1ccc(-c2nc(C(N)=O)c(CN(C)C)o2)c2ccc(C(F)(F)F)nc12 |  |  |  | inhibition [6]: 40%

Row | SMILES | IC50 [1] [nM] | IC50 [3] [nM] | IC50 [4] [nM] | also measured
18 | COc1ccc(-c2nc(C(=O)N3CCC3)c(CN)o2)c2ccc(C(F)(F)F)nc12 | 31 |  |  | 
19 | COc1ccc(-c2nc(C(N)=O)c(CNC3CCCC3)o2)c2ccc(C(F)(F)F)nc12 |  |  |  | inhibition [6]: 39%
20 | COc1ccc(-c2nc(C(N)=O)c(CN3CCCC3)o2)c2ccc(C(F)(F)F)nc12 |  |  |  | inhibition [6]: 31%
21 | COc1ccc(-c2nc(C(=O)N3CCCC3)c(CN)o2)c2ccc(C(F)(F)F)nc12 | 17 |  |  | 
22 | COc1ccc(-c2nc(C(=O)N3CCN(c4ncccn4)CC3)c(CN)o2)c2ccc(C(F)(F)F)nc12 | 19 | 430 | 2000 | Cmax [2]: 9500 nM; AUC (Cynomolgus monkey): 130 µM·h; inhibition in vivo at 3 mg/kg (Rattus norvegicus [8]): 64%; Cmax [11]: 13000 nM
23 | COc1ccc(-c2nc(C(=O)N3CCC4(CC3)C(=O)NCN4c3ccccc3)c(CN)o2)c2ccc(C(F)(F)F)nc12 | 1 | 20 | 130 | Selectivity ratio (Homo sapiens [9]): 20; Selectivity ratio (Homo sapiens [10]): 130
24 | CCN(CC)Cc1oc(-c2ccc(OC)c3nc(C(F)(F)F)ccc23)nc1C(N)=O |  |  |  | inhibition [6]: 21%
25 | COc1ccc(-c2nc(C(=O)N3CCN(C(=O)c4ccccn4)CC3)c(CN)o2)c2ccc(C(F)(F)F)nc12 | 1 | 1900 | 2100 | Cmax [2]: 730 nM; Selectivity ratio (Homo sapiens [9]): 1000; ED50 (Rattus norvegicus [5]): 0.6 mg/kg; Selectivity ratio (Homo sapiens [10]): 1000
26 | COc1ccc(-c2nc(C(=O)N3CCCCC3)c(CN)o2)c2ccc(C(F)(F)F)nc12 | 49 |  |  | 
27 | COc1ccc(-c2nc(C)co2)c2ccc(C(F)(F)F)nc12 | 350 |  |  | 
28 | COc1ccc(-c2nc(CN)c(C)o2)c2ccc(C(F)(F)F)nc12 | 80 |  |  | 
29 | COc1ccc(-c2nc(CCl)c(C)o2)c2ccc(C(F)(F)F)nc12 | 470 |  |  | 
30 | COc1ccc(-c2nc(C=O)c(C)o2)c2ccc(C(F)(F)F)nc12 | 310 |  |  | 
31 | COc1ccc(C(=O)Nc2c(Cl)c[n+]([O-])cc2Cl)c2ccc(C(F)(F)F)nc12 [SCH-351591] | 60 | > 10000 | > 10000 | 
32 | COc1ccc(C(=O)Nc2c(Cl)cncc2Cl)c2ccc(C(F)(F)F)nc12 | 20 | > 10000 | 7300 | 
33 | CCc1coc(-c2ccc(OC)c3nc(C(F)(F)F)ccc23)n1 | 670 |  |  | 
34 | COc1ccc(-c2nc(CO)c(C)o2)c2ccc(C(F)(F)F)nc12 | 470 |  |  | 

From ChEMBL document CHEMBL1139777, “Discovery of a highly potent series of oxazole-based phosphodiesterase 4 inhibitors” (Bioorg Med Chem Lett, 2007)
